How the values were obtained:
S. aureus (ATCC 6538) = format: cell-based, Staphylococcus aureus; settings: for MIC/CAC, converted data, S. aureus: MIC divided by the amphiphile's CAC; for MIC, S. aureus: microdilution, serial half-dilution in PBS, Mueller Hinton broth, 37 °C, 24 h, 10^6 CFU/mL, by eye and OD600, ± SD, at least three replicates
Experimental: E. coli (ATCC 25922), S. aureus (ATCC 6538), and C. albicans SC5314 (ATCC MYA-2876) were purchased from the American Type Culture Collection (ATCC). The two bacterial strains, E. coli and S. aureus, were cultured in Mueller Hinton broth at 37 °C; while the yeast strain, C. albicans, was grown in RPMI 1640 medium at 30 °C. The microdilution method was employed to determine MICs of the amphiphiles against the microorganism strains listed above.[21] Solutions of lipopeptides and biocides were half-diluted serially in 96-well plates using PBS buffer containing 137 mM NaCl, 2.7 mM KCl, 8.1 mM Na2HPO4, and 1.9 mM KH2PO4 for E. coli and S. aureus and using RPMI 1640 for C. albicans. Overnight incubations of the strains, in each respective growth medium, were then inoculated into each well, giving final concentrations of 10^6 CFU/mL for E. coli and S. aureus and 10^5 CFU/mL for C. albicans. Culture media without microorganisms and amphiphiles were employed as positive controls, while fresh microorganism cultures without amphiphiles were used as negative controls. Each plate has both positive controls and negative controls. The plates were then incubated at an appropriate temperature (stated above) for 24 h for the bacterial strains and 48 h for the yeast strain. MICs of each sample were first determined by eye. A more quantitative analysis was carried out by measuring optical densities at 600 nm (OD600) of each well using a Sunrise absorbance microplate reader (Tecan Group Ltd.). Inhibitory ratios (IRs) of each sample at a given concentration against a specific strain, denoted as IRi, were calculated by IRi = (OD600,negative control – OD600,i)/(OD600,negative control – OD600,positive control) × 100%. All experiments were repeated at least three times with each group containing three replicates. To better analyze concentration–IR relationships, sigmoidal function fittings were employed to generate the best fitted dose response curve for each situation.

hRBCs = format: cell-based, human; settings: hemolysis in PBS, 4% hRBC suspension mixed 1:1, 37 °C, 1 h, OD450, sigmoidal fit; ± SD, at least three replicates; read-out: EC50, hRBC (50% hemolysis)
Experimental: hRBCs were purchased from Rockland Immunochemical Inc. Hemolytic assays were performed in 96-well plates in an environment of PBS, as previously described.[13],[23] Amphiphiles were half diluted serially at first, resulting in 100 μL of solution in each well, and mixed subsequently with 100 μL of 4% hRBC suspension. Wells filled by PBS mixed with hRBC were employed as positive controls, while hRBCs with added 0.1% Triton X-100 were negative controls. After incubating at 37 °C for 1 h, the plates were centrifuged at 1000 times gravity for 5 min. The supernatants in each well, which contained the released hemoglobin, were transferred to another plate, and their optical density at 450 nm (OD450) was measured using an absorbance microplate reader. The percentage of hemolysis H for each sample at a certain concentration c was obtained by Hc = (OD450,c – OD450,positive control)/(OD450,negative control – OD450,positive control) × 100%. Figures for percentage leakage against concentration for each sample were plotted to determine the approximate range of 50% hemolysis, and the relevant concentration was the half maximal effective concentration (EC50) of the sample. Each experiment was repeated at least three times with each containing three replicates. The dose–response curves were again obtained by applying sigmoidal functional fits to obtain the EC50 values.

[1] = Neutron reflectivity of amphiphile binding to lipid monolayer; settings: C14KKGGII 5 μM, C14TAB 2.5 μM, C12TAB 75 μM; for Γamphiphile, amount bound to DPPC monolayer / Γamphiphile, amount bound to DPPG monolayer: monolayer at 28 mN/m; for DPPG lipid removed from monolayer: NR
Experimental: Single-component lipid monolayer models in a Langmuir trough (12.5 cm × 15 cm, Nima Technology Ltd., UK) were employed to investigate interactions between amphiphiles and lipids. The trough was filled with 70 mL of PBS at room temperature to provide a physiological environment.[23]−[25] Saturated head-charged lipid DPPG and saturated zwitterionic DPPC monolayers, mimicking negatively charged microbial membranes and mammalian cell membranes, respectively, were formed, and their interactions with amphiphiles were controlled by injecting each amphiphile carefully from outside the trough barrier. The lipids were dissolved in a chloroform/methanol mixture (v/v 9:1) to form the spreading solution. The lipid monolayer was spread by dripping the lipid solution onto the surface of the PBS solution. Following stabilization of the surface pressure, three cycles of isothermal compression and expansion were carried out to make the monolayer homogeneous. The surface was controlled at an initial pressure of 28 mN/m to mimic the static pressure within cell membranes. The final concentration of the amphiphile after injection was 1/40 of its CAC value for C14TAB, while the final concentration was 3/40 CAC for C12TAB because of its relatively higher MICs. Surface pressure changes with time following the injection process were recorded and analyzed.
Monolayer models described above were characterized using neutron reflectivity (NR) to measure the component distribution normal to the air/liquid interface. Measurements were performed on the SURF reflectometer at the ISIS Neutron and Muon Source (STFC Rutherford Appleton Laboratory, Didcot, UK).[23]−[25] The instrument provided a momentum transfer (Q) range from 0.01 to 0.5 Å^–1 [Q = […], where λ is the wavelength of the incoming neutron beam and θ is the incident angle]. At the start of the NR measurements, the reflectivity of the air/D2O interface was used for instrument calibration. Monolayers were prepared on the beamline. For each interaction, different isotopic contrasts were examined by applying chain-deuterated or fully hydrogenated versions of lipids (d62-DPPG, DPPG, d62-DPPC, and DPPC, denoted as dDPPG, hDPPG, dDPPC, and hDPPC, respectively) on the surface of PBS in D2O or null reflecting water (NRW, H2O/D2O = 91.9%/8.1%, v/v) and injecting deuterated or protonated versions of amphiphiles (C14KKGGII, dC14KKGGII, C12TAB, dC12dTAB, and C14TAB, denoted as hC14KKGGII, dC14KKGGII, hC12TAB, dC12TAB, and hC14TAB, respectively) from underneath the lipid monolayer outside the trough barrier bar. Reflectivity profiles from lipid monolayers were scanned before amphiphile injection to ensure good monolayer reproducibility. Raw data were reduced using Mantid software, and the resultant NR profiles were fitted via the least squares method using a Motofit package on Igor 6, where a multilayer model was employed in the analysis. The thickness and scattering length density (SLD, Nb) of each layer, that is, lipid tail region, lipid head region, and lipopeptide region, were fitted to the data. The SLD of each layer is related to the volume fractions of its components and could be calculated using Nb = ∑iφiNbi, where i denotes each component, for example, the solvent, lipid tails, lipid heads, lipopeptides’ acyl chains, and lipopeptides’ amino acids, and φi represents the volume fraction of component i and is constrained by ∑iφi = 1 in each layer. More details about the division of the molecular head/tail groups and relevant fitting parameters can be found in Figure S3 and Tables S3 and S4.

| Compound | MIC/CAC, converted data, S. aureus (S. aureus (ATCC 6538)) | MIC, S. aureus (S. aureus (ATCC 6538)) | EC50 (hRBCs) | Γlipid, DPPC remaining on the surface after amphiphile binding ([1]; NR best fit, DPPC monolayer at 28 mN/m, 3.08 ± 0.08 before) | Γlipid, DPPG remaining on the surface after amphiphile binding ([1]; NR best fit, DPPG monolayer at 28 mN/m, 3.35 ± 0.01 before) | Γamphiphile, amount bound to DPPC monolayer ([1]; NR best fit) | Γamphiphile, amount bound to DPPG monolayer ([1]; NR best fit) | DPPG lipid removed from monolayer [1] |
| --- | --- | --- | --- | --- | --- | --- | --- | --- |
| CCCCCCCCCCCC[N+](C)(C)C.[Br-] [C12TAB, dodecyltrimethylammonium bromide] | 0.03 ± 0.01 | 25 ± 7 µM | 610 ± 30 µM | 2.55 ± 0.01 μmol/m^2 | 2.70 ± 0.20 μmol/m^2 | 0.98 ± 0.02 μmol/m^2 | 1.51 ± 0.01 μmol/m^2 | 22% |
| CCCCCCCCCCCCCC[N+](C)(C)C.[Br-] [C14TAB, tetradecyltrimethylammonium bromide] | 0.06 ± 0.04 | 6 ± 4 µM | 98 ± 8 µM | – | – | 1.10 ± 0.01 μmol/m^2 | 1.43 ± 0.02 μmol/m^2 | 19% |

Source: article PMC9161444, “In-Membrane Nanostructuring of Cationic Amphiphiles Affects Their Antimicrobial Efficacy and Cytotoxicity: A Comparison Study between a De Novo Antimicrobial Lipopeptide and Traditional Biocides” (Langmuir, 2022)
